Data taken from US20090233917A1, “Stroke recovery” (priority 2006, published 2009).

Columns and labels:
[1] = test system: permanent middle cerebral artery occlusion (MCAO) in rats; assay: Functional recovery following permanent MCAO in rats (Example 1); type: in vivo, Sprague Dawley Rats; details: for Infarct Volume (%): day 28 after permanent MCAO, percentage of intact contralateral hemispheric volume, mean ± S.E.M.
Source text: The purpose of this study was to evaluate the efficacy of arimoclomol and iroxanadine in enhancing neurological recovery in a model of permanent middle cerebral artery occlusion (MCAO) in rats. The permanent MCAO is a well accepted and considered to be a standard animal model for studying clinical aspects of stroke. (Stroke. 1999; 30:2752-2758.)
Forty male Sprague Dawley Rats, each weighing 300-400 g, which had been housed and handled for behavioral assessment for seven (7) days prior to surgery for acclimation purposes, were operated under anesthesia to create focal cerebral infarcts by permanent occlusion of the proximal right middle cerebral artery (MCA) according to modified Tamura model. Briefly, the rats were anesthetized with 2-3% halothane in the mixture of N2O:O2 (2:1), and were maintained with 1˜1.5% halothane in the mixture of N2O:O2 (2:1). The temporalis muscle was bisected and reflected through an incision made midway between the eye and the eardrum canal. The proximal MCA was exposed through a subtemporal craniectomy without removing the zygomatic arch and without transecting the facial nerve. […] Body temperature was maintained at 37.5° C.±0.5° C. throughout the entire procedure. Cefazolin (40 mg/kg; Baxter, Lot 06014.1, Exp. January 2009) was given i.p. one day before MCAO and just after MCAO to prevent infections.
The rats were randomly divided into 4 groups of 10 animals each. One group was given arimoclomol, p.o., starting at one hour after the occlusion at 200 mg/kg/d once daily for 3 days, then 50 mg/kg/d once daily for a total of 29 days. The second group was given iroxanadine using the same dosing regimen as for arimoclomol. The third group is a positive control group and is given intracistemally 1 μg (at 20 μg/ml, also containing 100 μg/ml of bovine serum albumin) beta-fibroblast growth factor (bFGF) one hour and one day (i.e. two administrations) after the occlusion. The fourth group is a negative control with administration of the vehicle only.
Animals were evaluated preoperation (day −1), then every 7 days after the operation (7, 14, 21, and 28 days) by forelimb and hindlimb placing tests and body swing test, which are widely accepted as standard tests indicative of functional recovery after a stroke model.
For the forelimb placing test, the examiner held the rat close to a tabletop and scored the rat's ability to place the forelimb on the tabletop in response to whisker, visual, tactile, or proprioceptive stimulation. Similarly, for the hindlimb placing test, the examiner assessed the rat's ability to place the hindlimb on the tabletop in response to tactile and proprioceptive stimulation. Separate sub-scores were obtained for each mode of sensory input (halfpoint designations possible), and added to give total scores (for the forelimb placing test: 0=normal, 12=maximally impaired; for the hindlimb placing test: 0=normal; 6=maximally impaired).
For the body swing test, the rat was held approximately one inch from the base of its tail. It was then elevated to an inch above a surface of a table. The rat was held in the vertical axis, defined as no more than […] to either the left or the right side. A swing was recorded whenever the rat moved its head out of the vertical axis to either side. The rat must return to the vertical position for the next swing to be counted. Thirty (30) total swings were counted. A normal rat typically has an equal number of swings to either side. Following focal ischemia, the rat tends to swing to the contralateral (left) side.
The behavior was evaluated by giving the score ranging in the parentheses after each test: • Forelimb placing test (0-12), consisting of whisker tactile placing (0-2); visual placing (forward, sideways) (0-4); tactile placing (dorsal, lateral) (0-4); and proprioceptive placing (0-2); • Hindlimb placing test (0-6), consisting of tactile placing (dorsal, lateral) (0-4); and proprioceptive placing (0-2). […]

[2] = test system: mice under cytotoxic hypoxia; details: mouse, in vivo
[3] = test system: cardiac ischemia/reperfusion in rats; assay: Experimental cardiac ischemia/reperfusion in rats; type: in vivo; details: administered prior to ischemia/reperfusion
in vivo = details: mouse
[4] = test system: bacterial reverse mutation; assay: Standard bacterial reverse mutation assays
[5] = test system: transient global cerebral ischemia in gerbils; assay: Neuroprotection from transient global cerebral ischemia in gerbils; type: in vivo, Mongolian gerbils; details: 50 mg/kg intraperitoneally prior to surgery; two experiments
Description: Adult male Mongolian gerbils weighing 60-80 g were intraperitoneally administered 50 mg/kg of Compound 2 prior to surgery to induce transient global cerebral ischemia. The gerbils were operated under anesthesia with 2% halthane in a gas mixture of 70% N2O and 30% O2, followed by maintenance at 1% halothane to surgically expose and clamp the carotid arteries for 5 minutes to prevent the blood flow to the brain. After 5 minutes, the clamps were removed and reperfusion occurred. The gerbils were evaluated for motility and spontaneous alteration in a Y maze test essentially as described in Gupta and Sharma, Biol. Pharm. Bull. 29(5) 957-961 (2006), and were decapitated 4 days after reperfusion for histological evaluation for the neuronal survival in the hippocampal CA-1 area.

[6] = treatment from 1 h after occlusion, up to 28 days

Row | Compound | Infarct Volume (%) [1] [%] | survival time under cytotoxic hypoxia [2] | duration of ventricular arrhythmias [3] | overall survival [3] | LD50 (in vivo) [mg/kg] | mutagenicity [4] | neuroprotection (motility, Y maze, neuronal survival in hippocampal CA-1) compared to control group [5] | Body Swing Test, recovery compared to vehicle group [1, 6] | Forelimb Placing Test, recovery compared to vehicle group [1, 6] | Hindlimb Placing Test, recovery compared to vehicle group [1, 6]
1 | c1cncc(C2=NOCC(CN3CCCCC3)N2)c1 (centres unmarked) [iroxanadine, 5,6-dihydro-5(1-piperidinyl)-methyl-3-(3-pyridyl)-4H-1,2,4-oxadiazine] | 21.8 ± 2.1 | – | – | – | – | – | – | – | – | –
2 | CC(C)(C)NCC(O)CO/N=C(\Cl)c1cccc(C(F)(F)F)c1 (centres unmarked) [Compound 2, N-[3-(1,1-dimethylethyl)amino-2-hydroxypropoxy]-3-trifluoromethylbenzene-carboximidoyl chloride] | – | significantly increased | significantly decreased | increased | ~1000 | not to be mutagenic | neuroprotective effects | – | – | –
3 | bFGF: positive control, beta-fibroblast growth factor (bFGF) given intracisternally | 23.1 ± 1.7 | – | – | – | – | – | – | superior to the vehicle group | superior to the vehicle group | superior to the vehicle group
